Data taken from paper PMC6151984, “Novel Sulfamide-Containing Compounds as Selective Carbonic Anhydrase I Inhibitors” (Molecules : A Journal of Synthetic Chemistry and Natural …, 2017).

Experiments:
Test in all cases: stopped-flow CO2 hydration assay
Type in all cases: biochemical
[1] = target: T1, hCA I (Homo sapiens, UniProt P00915)
T1 construct: gene CA1; recombinant, obtained in-house; cytosolic
Source text: stopped-flow CO2 hydration assay on hCA I

[2] = target: T2, hCA IV (Homo sapiens, UniProt P22748)
T2 construct: gene CA4; recombinant, obtained in-house
T2 sequence (P22748 19-284): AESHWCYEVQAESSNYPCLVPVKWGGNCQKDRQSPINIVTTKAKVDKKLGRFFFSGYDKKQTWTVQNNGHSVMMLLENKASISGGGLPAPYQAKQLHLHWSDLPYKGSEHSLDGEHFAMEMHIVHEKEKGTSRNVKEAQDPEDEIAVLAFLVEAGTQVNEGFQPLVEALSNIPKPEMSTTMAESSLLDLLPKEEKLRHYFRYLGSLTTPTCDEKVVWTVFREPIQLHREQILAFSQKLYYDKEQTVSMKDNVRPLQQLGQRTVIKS
Source text: stopped-flow CO2 hydration assay on hCA IV

[3] = target: T3, hCA II (Homo sapiens, UniProt P00918)
T3 construct: gene CA2; recombinant, obtained in-house; cytosolic
Source text: stopped-flow CO2 hydration assay on hCA II

T1 sequence (P00915 2-261): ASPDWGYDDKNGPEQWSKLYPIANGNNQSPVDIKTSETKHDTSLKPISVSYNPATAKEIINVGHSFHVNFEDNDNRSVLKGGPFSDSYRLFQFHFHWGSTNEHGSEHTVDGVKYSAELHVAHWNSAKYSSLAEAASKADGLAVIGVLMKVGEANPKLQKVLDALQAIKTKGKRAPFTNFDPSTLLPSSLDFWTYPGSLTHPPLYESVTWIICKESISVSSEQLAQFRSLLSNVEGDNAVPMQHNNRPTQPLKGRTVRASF

Row | SMILES | Ki [1] [µM] | Ki [2] [nM] | Ki [3] [nM]
1 | NS(=O)(=O)Nc1ccccc1S(=O)(=O)NCCC(=O)N1CCN(C(c2ccccc2)c2ccccc2)CC1 [6a, N-(3-(4-Benzhydrylpiperazin-1-yl)-3-oxopropyl)-2-(sulfamoylamino)benzenesulfonamide] | 0.286 | 151 | 473
2 | NS(=O)(=O)Nc1ccccc1S(=O)(=O)NCCC(=O)N1CCN(C(c2ccc(F)cc2)c2ccc(F)cc2)CC1 [6d, N-(3-(4-(bis(4-Fluorophenyl)methyl)piperazin-1-yl)-3-oxopropyl)-2(sulfamoylamino)benzenesulfonamide] | 0.66 | 117 | 189
3 | NS(=O)(=O)Nc1ccccc1S(=O)(=O)N1CCCC(C(=O)N2CCN(C(c3ccccc3)c3ccccc3)CC2)C1 (stereo not drawn) [6g, (1-((2-Sulfamoylaminophenyl)sulfonyl)piperidin-3-yl)(4-benzhydrylpiperazin-1-yl)methanone] | 0.605 | 314 | 89.8
4 | NS(=O)(=O)Nc1ccccc1S(=O)(=O)N1CCCC(C(=O)N2CCN(C(c3ccc(F)cc3)c3ccc(F)cc3)CC2)C1 (stereo not drawn) [6j, (1-((2-Sulfamoylaminophenyl)sulfonyl)piperidin-3-yl)(4-(bis(4-fluorophenyl)methyl)piperazin-1-yl)methanone] | 2.75 | 1500 | 6460
5 | NS(=O)(=O)Nc1ccc(S(=O)(=O)N2CCCC(C(=O)N3CCN(C(c4ccc(F)cc4)c4ccc(F)cc4)CC3)C2)cc1 (stereo not drawn) [6l, (1-((4-Sulfamoylaminophenyl)sulfonyl)piperidin-3-yl)(4-(bis(4-fluorophenyl)methyl)piperazin-1-yl)methanone] | 0.326 | 467 | 786

These reach a lower Ki [1]. Values come first.

Row | Ki [1] [µM] | Ki [2] [nM] | Ki [3] [nM] | SMILES
6 | 0.0831 | 2360 | 419 | NS(=O)(=O)Nc1cccc(S(=O)(=O)NCCC(=O)N2CCN(C(c3ccccc3)c3ccccc3)CC2)c1 [6b, N-(3-(4-Benzhydrylpiperazin-1-yl)-3-oxopropyl)-3-(sulfamoylamino)benzenesulfonamide]
7 | 0.0754 | 124 | 439 | NS(=O)(=O)Nc1ccc(S(=O)(=O)NCCC(=O)N2CCN(C(c3ccccc3)c3ccccc3)CC2)cc1 [6c, N-(3-(4-Benzhydrylpiperazin-1-yl)-3-oxopropyl)-4-(sulfamoylamino)benzenesulfonamide]
8 | 0.094 | 423 | 165 | NS(=O)(=O)Nc1cccc(S(=O)(=O)NCCC(=O)N2CCN(C(c3ccc(F)cc3)c3ccc(F)cc3)CC2)c1 [6e, N-(3-(4-(bis(4-Fluorophenyl)methyl)piperazin-1-yl)-3-oxopropyl)-3(sulfamoylamino)benzenesulfonamide]
9 | 0.0632 | 202 | 406 | NS(=O)(=O)Nc1ccc(S(=O)(=O)NCCC(=O)N2CCN(C(c3ccc(F)cc3)c3ccc(F)cc3)CC2)cc1 [6f, N-(3-(4-(bis(4-Fluorophenyl)methyl)piperazin-1-yl)-3-oxopropyl)-4-(sulfamoylamino)benzenesulfonamide]
10 | 0.0714 | 1620 | 911 | NS(=O)(=O)Nc1cccc(S(=O)(=O)N2CCCC(C(=O)N3CCN(C(c4ccccc4)c4ccccc4)CC3)C2)c1 (stereo not drawn) [6h, 4(1-((3-Sulfamoylaminophenyl)sulfonyl)piperidin-3-yl)(4-benzhydrylpiperazin-1-yl)methanone]
11 | 0.153 | 364 | 455 | NS(=O)(=O)Nc1ccc(S(=O)(=O)N2CCCC(C(=O)N3CCN(C(c4ccccc4)c4ccccc4)CC3)C2)cc1 (stereo not drawn) [6i, (1-((4-Sulfamoylaminophenyl)sulfonyl)piperidin-3-yl)(4-benzhydrylpiperazin-1-yl)methanone]
12 | 0.0458 | 1380 | 753 | NS(=O)(=O)Nc1cccc(S(=O)(=O)N2CCCC(C(=O)N3CCN(C(c4ccc(F)cc4)c4ccc(F)cc4)CC3)C2)c1 (stereo not drawn) [6k, (1-((3-Sulfamoylaminophenyl)sulfonyl)piperidin-3-yl)(4-(bis(4-fluorophenyl)methyl)piperazin-1-yl)methanone]
